In patent US5100797A, “Fucosidase inhibitors” (priority 1989, dated 1992):

Assays:
pKa of inhibitors = format: physicochemical
[1] = target: T1, human liver α-L-fucosidase (Homo sapiens, UniProt P04066); experiment: Inhibition of human liver α-L-fucosidase (4-umbelliferyl glycoside substrate, Dixon plot); format: biochemical; conditions: for Ki: human liver extract, 4-umbelliferyl substrate 0.5 mM, Dixon graphical procedure; for fucosidase inhibition, in words: human liver α-L-fucosidase
T1 construct: The resultant supernatant was used as the source of human glycosidases; from tissue; host or cells: post-mortem human liver, 37,000 g supernatant of homogenate
T1 sequence (P04066 32-466): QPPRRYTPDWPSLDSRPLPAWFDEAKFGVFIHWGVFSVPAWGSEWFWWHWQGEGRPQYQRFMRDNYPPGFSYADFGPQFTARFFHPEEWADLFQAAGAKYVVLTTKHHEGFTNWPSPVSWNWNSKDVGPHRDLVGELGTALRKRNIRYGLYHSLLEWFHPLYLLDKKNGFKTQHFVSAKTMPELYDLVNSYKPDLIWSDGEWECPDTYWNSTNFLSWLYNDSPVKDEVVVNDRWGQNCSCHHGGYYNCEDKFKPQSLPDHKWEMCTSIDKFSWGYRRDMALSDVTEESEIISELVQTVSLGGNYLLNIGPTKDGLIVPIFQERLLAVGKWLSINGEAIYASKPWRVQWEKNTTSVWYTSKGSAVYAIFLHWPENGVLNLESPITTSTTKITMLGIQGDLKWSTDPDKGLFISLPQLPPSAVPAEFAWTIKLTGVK
Experimental: (§1) Post-mortem human liver, which had been stored at -20° C. until required was homogenized in deionized water (50%, w/v) in a Potter-Elvehjem homogenizer and then centrifuged at 37,000 g for 30 min in an MSE 18 centrifuge. The resultant supernatant was used as the source of human glycosidases.
The specificity of the inhibitors was determined by assaying the glycosidases in the presence of and absence of a 1 mM solution of each compound. […] The Lineweaver-Burk graphical procedure and secondary plots of the slope against inhibitor concentration were used to determine the nature of inhibition and the values of Ki for these activities.

[2] = test system: N-acetyl-β-D-hexosaminidase; experiment: Glycosidase specificity in human liver extract: N-acetyl-β-D-hexosaminidase; format: biochemical; conditions: 1 mM compound
Experimental: as §1, with “glycosidases. A lyophilized extract of liver from Charonia lampas was obtained from Seikagaku Kogyo Co., Japan for the isolation of α-L-fucosidase by the published procedure of Iijima and Egami, J. Biochem. 70, 75-78 (1971).” for “glycosidases.”
(§2) The glycosidase activities in an extract of human liver were assayed by using the appropriate fluorigenic 4-umbelliferyl glycoside substrate (Koch-Light, Haverhill, Suffolk, U.K.) with a concentration of 0.5 mM at the optimal pH for each enzyme [Burditt et al., Biochem. J. 189, 467-473 (1980)]. The specificity of the inhibitors was determined by assaying the glycosidases in the presence of and absence of a 1 mM solution of each compound. The nature of the inhibition of human α-L-fucosidase, the value of Ki determined by using the Dixon graphical procedure and the effect of pH on the inhibition were investigated as described previously by Al Daher et al., Biochem. J. 258, 613-615 (1989). Bovine epididymal and Charonia lampas α-L-fucosidase were assayed using para-nitrophenyl-α-L-fucopyranoside as substrate in phosphate-citrate buffer (McIlvaine), pH 6.0, and 0.005 M-sodium acetate buffer, pH 4.5 containing 0.15 M NaCl, respectively. The Lineweaver-Burk graphical procedure and secondary plots of the slope against inhibitor concentration were used to determine the nature of inhibition and the values of Ki for these activities.

α-glucosidase = conditions: Kite et al. 1988; cited from earlier work
[3] = target: T2, Bovine epididymal α-L-fucosidase (Bos taurus, UniProt Q2KIM0); experiment: Inhibition of bovine epididymal α-L-fucosidase (Lineweaver-Burk); format: biochemical; conditions: para-nitrophenyl-α-L-fucopyranoside; phosphate-citrate buffer pH 6.0; read-out: Ki (M) Bovine epididymis α-L-fucosidase
T2 construct: Bovine epididymal and Charonia lampas α-L-fucosidase were assayed; from tissue; host or cells: bovine epididymis
T2 sequence (Q2KIM0 23-468): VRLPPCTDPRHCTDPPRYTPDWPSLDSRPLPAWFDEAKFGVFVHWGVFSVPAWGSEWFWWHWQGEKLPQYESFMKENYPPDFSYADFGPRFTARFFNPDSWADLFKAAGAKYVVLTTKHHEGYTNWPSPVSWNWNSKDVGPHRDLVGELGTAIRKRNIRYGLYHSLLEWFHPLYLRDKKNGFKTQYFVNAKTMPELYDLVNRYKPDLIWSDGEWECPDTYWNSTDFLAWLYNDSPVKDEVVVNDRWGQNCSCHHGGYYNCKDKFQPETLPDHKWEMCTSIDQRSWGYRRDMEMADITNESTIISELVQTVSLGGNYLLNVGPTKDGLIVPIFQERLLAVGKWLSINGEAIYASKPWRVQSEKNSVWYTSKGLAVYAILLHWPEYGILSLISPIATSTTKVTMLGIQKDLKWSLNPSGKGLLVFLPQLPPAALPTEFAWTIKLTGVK
Experimental: as §2

[4] = target: Charonia lampas α-L-fucosidase; experiment: Inhibition of Charonia lampas α-L-fucosidase (Lineweaver-Burk); format: biochemical; conditions: para-nitrophenyl-α-L-fucopyranoside; sodium acetate buffer pH 4.5, 0.15 M NaCl; read-out: Ki (M) C. lampas α-L-fucosidase
Experimental: as §1, with “glycosidases. A lyophilized extract of liver from Charonia lampas was obtained from Seikagaku Kogyo Co., Japan for the isolation of α-L-fucosidase by the published procedure of Iijima and Egami, J. Biochem. 70, 75-78 (1971).” for “glycosidases.”
as §2

β-D-galactosidase = target: T3, β-D-galactosidase (Homo sapiens, UniProt P16278); experiment: Glycosidase specificity in human liver extract: β-D-galactosidase; format: biochemical; conditions: read-out: Other specificities (% inhibition at 1 mM): β-D-galactosidase, 1 mM compound
T3 construct: 4-umbelliferyl glycoside substrate
T3 sequence (P16278 29-677): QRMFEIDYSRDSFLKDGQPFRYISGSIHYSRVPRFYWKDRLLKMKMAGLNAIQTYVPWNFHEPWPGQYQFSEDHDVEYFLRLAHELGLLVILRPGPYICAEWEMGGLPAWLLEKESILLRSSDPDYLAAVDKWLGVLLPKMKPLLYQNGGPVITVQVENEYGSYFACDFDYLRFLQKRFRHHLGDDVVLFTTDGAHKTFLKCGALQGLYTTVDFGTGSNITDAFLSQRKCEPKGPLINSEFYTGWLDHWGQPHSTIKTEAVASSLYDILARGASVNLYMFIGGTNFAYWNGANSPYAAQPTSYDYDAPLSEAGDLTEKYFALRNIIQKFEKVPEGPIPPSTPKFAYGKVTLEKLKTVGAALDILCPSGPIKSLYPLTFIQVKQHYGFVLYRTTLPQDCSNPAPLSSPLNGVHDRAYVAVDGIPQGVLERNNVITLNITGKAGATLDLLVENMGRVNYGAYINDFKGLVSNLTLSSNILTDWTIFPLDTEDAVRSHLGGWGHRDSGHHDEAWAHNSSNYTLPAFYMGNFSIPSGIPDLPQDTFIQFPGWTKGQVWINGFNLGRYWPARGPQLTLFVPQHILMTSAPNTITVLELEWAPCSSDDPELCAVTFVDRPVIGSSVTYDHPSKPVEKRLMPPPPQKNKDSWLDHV
Experimental: as §1, with “glycosidases. A lyophilized extract of liver from Charonia lampas was obtained from Seikagaku Kogyo Co., Japan for the isolation of α-L-fucosidase by the published procedure of Iijima and Egami, J. Biochem. 70, 75-78 (1971).” for “glycosidases.”
(§3) The glycosidase activities in an extract of human liver were assayed by using the appropriate fluorigenic 4-umbelliferyl glycoside substrate (Koch-Light, Haverhill, Suffolk, U.K.) with a concentration of 0.5 mM at the optimal pH for each enzyme [Burditt et al., Biochem. J. 189, 467-473 (1980)]. The specificity of the inhibitors was determined by assaying the glycosidases in the presence of and absence of a 1 mM solution of each compound. The nature of the inhibition of human α-L-fucosidase, the value of Ki determined by using the Dixon graphical procedure and the effect of pH on the inhibition were investigated as described previously by Al Daher et al., Biochem. J. 258, 613-615 (1989). […]

[5] = test system: mammalian α-L-fucosidases; conditions: background statement; cited from earlier work
α-D-mannosidase = target: T4, α-D-mannosidase (Homo sapiens, UniProt O00754); experiment: Glycosidase specificity in human liver extract: α-D-mannosidase; format: biochemical
T4 construct: The resultant supernatant was used as the source of human glycosidases; from tissue; host or cells: post-mortem human liver, 37,000 g supernatant of homogenate
T4 sequence (O00754 50-601 limits assumed): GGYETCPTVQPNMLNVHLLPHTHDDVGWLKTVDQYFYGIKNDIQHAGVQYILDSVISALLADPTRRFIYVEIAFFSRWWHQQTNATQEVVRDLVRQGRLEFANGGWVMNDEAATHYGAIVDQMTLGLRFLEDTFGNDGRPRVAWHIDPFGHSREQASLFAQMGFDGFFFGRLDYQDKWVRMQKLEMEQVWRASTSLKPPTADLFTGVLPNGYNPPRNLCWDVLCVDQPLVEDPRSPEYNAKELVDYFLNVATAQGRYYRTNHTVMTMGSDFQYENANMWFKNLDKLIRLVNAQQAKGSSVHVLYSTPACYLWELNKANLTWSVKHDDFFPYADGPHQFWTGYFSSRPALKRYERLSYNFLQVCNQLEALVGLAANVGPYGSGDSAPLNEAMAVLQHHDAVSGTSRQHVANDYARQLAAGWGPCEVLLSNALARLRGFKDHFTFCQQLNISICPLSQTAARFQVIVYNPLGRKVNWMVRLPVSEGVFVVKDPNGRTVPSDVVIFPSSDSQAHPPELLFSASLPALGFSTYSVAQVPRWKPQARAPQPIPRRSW
T4 sequence (O00754 602-882 limits assumed): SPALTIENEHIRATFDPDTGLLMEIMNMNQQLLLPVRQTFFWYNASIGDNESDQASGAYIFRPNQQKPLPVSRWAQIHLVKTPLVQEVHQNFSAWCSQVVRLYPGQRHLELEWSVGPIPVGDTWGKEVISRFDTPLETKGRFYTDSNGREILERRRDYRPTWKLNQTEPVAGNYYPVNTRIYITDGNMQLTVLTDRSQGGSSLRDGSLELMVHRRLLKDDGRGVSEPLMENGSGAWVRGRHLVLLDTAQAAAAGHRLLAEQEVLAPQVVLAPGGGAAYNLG
T4 sequence (O00754 883-1011 limits assumed): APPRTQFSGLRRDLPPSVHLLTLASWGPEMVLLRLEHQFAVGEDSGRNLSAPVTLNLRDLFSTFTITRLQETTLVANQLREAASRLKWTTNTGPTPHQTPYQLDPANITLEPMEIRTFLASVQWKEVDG
Experimental: as §1, with “glycosidases. A lyophilized extract of liver from Charonia lampas was obtained from Seikagaku Kogyo Co., Japan for the isolation of α-L-fucosidase by the published procedure of Iijima and Egami, J. Biochem. 70, 75-78 (1971).” for “glycosidases.”
as §3

Ki [1] [µM] | Other specificities (% inhibition at 1 mM): N-acetyl-β-D-hexosaminidase [2] [%] | Ki [3] [M] | Ki [4] [M] | SMILES | pKa (pKa of inhibitors) | fucosidase inhibition, in words [1] | further results
– | – | – | – | OC[C@H]1N[C@H](CO)[C@@H](O)[C@H](O)[C@H]1O [Compound 2, α-homonojirimycin] | – | – | inhibition of α-glucosidase activity, in words (α-glucosidase): potent inhibitors of α-glucosidase activity
0.07 | 36 | 2e-06 | 5.8e-07 | CC[C@@H]1N[C@H](CO)[C@@H](O)[C@H](O)[C@@H]1O [Compound 8, β-1-C-Ethyl Deoxymannojirimycin] | 7.8 | very powerful fucosidase inhibitor | –
– | – | – | – | OC[C@H]1NC[C@H](O)[C@@H](O)[C@@H]1O [Compound 1, deoxynojirimycin] | – | – | inhibition of α-glucosidase activity, in words (α-glucosidase): potent inhibitors of α-glucosidase activity
– | – | – | – | C[C@@H]1NC[C@@H](O)[C@H](O)[C@@H]1O [Compound 4, 1,5-Dideoxy-1,5-imino-L-fucitol] | – | – | inhibition of mammalian α-L-fucosidases, in words [5]: very powerful and highly specific inhibitor
1 | 50 | 5.5e-06 | 0.002 | OC[C@H]1N[C@@H](c2ccccc2)[C@@H](O)[C@@H](O)[C@@H]1O [Compound 9, β-1-C-Phenyl Deoxymannojirimycin] | 6.3 | more potent fucosidase inhibitor than is DMJ (10) | –
– | – | – | – | OC[C@H]1NC[C@@H](O)[C@@H](O)[C@@H]1O [Compound 10, deoxymannojirimycin] | 7.2 | – | inhibition of mannosidase activity, in words (α-D-mannosidase): showed any inhibition of mannosidase activity; inhibition at 1000 µM (α-D-mannosidase; read-out: Other specificities (% inhibition at 1 mM): α-D-mannosidase, human liver extract, 1 mM compound): 64%

SMILES | Ki [1] [µM] | Other specificities (% inhibition at 1 mM): N-acetyl-β-D-hexosaminidase [2] [%] | Ki [3] [M] | Ki [4] [M] | pKa (pKa of inhibitors) | fucosidase inhibition, in words [1] | further results
C[C@H]1[C@@H](O)[C@@H](O)[C@H](O)CN1C [MeFDJ, reference compound] | 0.05 | 59 | – | – | 7.8 | – | –
C[C@@H]1N[C@H](CO)[C@@H](O)[C@H](O)[C@@H]1O [Compound 7, 2,6-Imino-2,6,7-trideoxy-L-glycero-D-mannohepitol] | – | – | 2e-08 | 1.4e-07 | 7.1 | did not diminish the inhibition of α-L-fucosidase | inhibition at 1000 µM (β-D-galactosidase): 27%
